{"source": "patent US20170253581A1", "about": "“SUBSTITUTED HETEROCYCLES AS c-MYC TARGETING AGENTS” (Northwestern University, priority 2016, published 2017)", "molecular_target": "Myc/Max binding to DNA (Homo sapiens, UniProt P01106)", "sequence (P01106 whole entry)": "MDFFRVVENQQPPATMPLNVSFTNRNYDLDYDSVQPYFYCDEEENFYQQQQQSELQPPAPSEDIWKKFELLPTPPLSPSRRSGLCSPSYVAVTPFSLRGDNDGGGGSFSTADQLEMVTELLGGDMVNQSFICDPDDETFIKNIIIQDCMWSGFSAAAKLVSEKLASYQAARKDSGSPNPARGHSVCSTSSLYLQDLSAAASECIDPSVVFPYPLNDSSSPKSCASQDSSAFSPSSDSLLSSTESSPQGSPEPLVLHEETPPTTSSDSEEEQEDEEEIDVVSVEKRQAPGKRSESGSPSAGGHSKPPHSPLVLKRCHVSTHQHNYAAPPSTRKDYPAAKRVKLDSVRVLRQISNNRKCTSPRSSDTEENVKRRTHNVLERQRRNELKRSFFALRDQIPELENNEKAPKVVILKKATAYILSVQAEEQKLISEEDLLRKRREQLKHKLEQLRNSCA", "assay": "Electrophoretic mobility shift assay (EMSA) of Myc/Max binding to DNA", "type": "biochemical", "settings": "EMSA; for remaining activity at 50 µM: 50 uM test compound, read-out: Bound DNA (%) (50uM); for remaining activity at 100 µM: read-out: Bound DNA (%) (100uM)", "in_short": "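Electrophoretic mobility shift assay of Myc/Max binding to DNA. Compounds tested at 200 μM, 100 μM and 50 μM.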"}
{"smiles": "CCc1ccc(Oc2c(-c3ccc(Oc4ccc(Cl)cc4)cc3O)n[nH]c2C(F)(F)F)cc1", "note": "[compound 0200681]", "values": [{"measurement": "remaining activity at 50 µM", "value": 90, "unit": "%"}, {"measurement": "remaining activity at 100 µM", "setting": "100 uM test compound", "value": 8, "unit": "%"}]}
{"smiles": "CCc1ccc(Oc2c(-c3ccc(O)cc3O)nn(C)c2C(F)(F)F)cc1", "note": "[compound 0200682]", "values": [{"measurement": "remaining activity at 50 µM", "value": 101, "unit": "%"}, {"measurement": "Bound DNA (%) (100uM)", "setting": "100 uM test compound", "value": 95, "unit": "%"}]}
{"smiles": "CCc1ccc(Oc2c(-c3ccccc3O)n[nH]c2C(F)(F)F)cc1", "note": "[compound 0200683]", "values": [{"measurement": "remaining activity at 50 µM", "value": 87, "unit": "%"}, {"measurement": "remaining activity at 100 µM", "setting": "100 uM test compound", "value": 20, "unit": "%"}]}
{"smiles": "CCc1ccc(Oc2c(-c3ccccc3O)nn(C)c2C(F)(F)F)cc1", "note": "[compound 0200684]", "values": [{"measurement": "remaining activity at 50 µM", "value": 102, "unit": "%"}, {"measurement": "remaining activity at 100 µM", "setting": "100 uM test compound", "value": 101, "unit": "%"}]}
{"smiles": "Oc1ccccc1C1=NNC(c2ccccc2)C1", "note": "(stereo not drawn) [compound 0200685]", "values": [{"measurement": "remaining activity at 50 µM", "value": 102, "unit": "%"}, {"measurement": "remaining activity at 100 µM", "setting": "100 uM test compound", "value": 103, "unit": "%"}]}
{"smiles": "Oc1cc(OCc2ccc(Cl)cc2)ccc1-c1[nH]nc(C(F)(F)F)c1-c1ccc2c(c1)OCCO2", "note": "[compound 0200686]", "values": [{"measurement": "remaining activity at 50 µM", "value": 98, "unit": "%"}, {"measurement": "remaining activity at 100 µM", "setting": "100 uM test compound", "value": 87, "unit": "%"}]}
{"smiles": "Cn1nc(C(F)(F)F)cc1-c1ccc(O)cn1", "note": "[compound 0200687]", "values": [{"measurement": "remaining activity at 50 µM", "value": 100, "unit": "%"}, {"measurement": "remaining activity at 100 µM", "setting": "100 uM test compound", "value": 101, "unit": "%"}]}
{"smiles": "Cn1nc(C(F)(F)F)cc1-c1ccc(N)cn1", "note": "[compound 0200688]", "values": [{"measurement": "remaining activity at 50 µM", "value": 102, "unit": "%"}, {"measurement": "remaining activity at 100 µM", "setting": "100 uM test compound", "value": 103, "unit": "%"}]}
{"smiles": "Cn1nc(C(F)(F)F)cc1-c1cnc(O)cn1", "note": "[compound 0200689]", "values": [{"measurement": "remaining activity at 50 µM", "value": 98, "unit": "%"}, {"measurement": "remaining activity at 100 µM", "setting": "100 uM test compound", "value": 98, "unit": "%"}]}
{"smiles": "Cn1nc(C(F)(F)F)cc1-c1ccc(OCc2ccc(Cl)cc2)cn1", "note": "[compound 0200690]", "values": [{"measurement": "remaining activity at 50 µM", "value": 98, "unit": "%"}, {"measurement": "remaining activity at 100 µM", "setting": "100 uM test compound", "value": 95, "unit": "%"}]}
{"smiles": "Cn1nc(C(F)(F)F)cc1-c1ccc(NCc2ccc(Cl)cc2)cn1", "note": "[compound 0200691]", "values": [{"measurement": "remaining activity at 50 µM", "value": 94, "unit": "%"}, {"measurement": "remaining activity at 100 µM", "setting": "100 uM test compound", "value": 97, "unit": "%"}]}
{"smiles": "Cn1nc(C(F)(F)F)cc1-c1cnc(OCc2ccc(Cl)cc2)cn1", "note": "[compound 0200692]", "values": [{"measurement": "remaining activity at 50 µM", "value": 97, "unit": "%"}, {"measurement": "remaining activity at 100 µM", "setting": "100 uM test compound", "value": 89, "unit": "%"}]}
{"smiles": "Oc1cc(Nc2ccc(Cl)c(Cl)c2)ccc1-c1cc(C(F)(F)F)[nH]n1", "note": "[compound 0200721]", "values": [{"measurement": "remaining activity at 50 µM", "value": 87, "unit": "%"}, {"measurement": "remaining activity at 100 µM", "setting": "100 uM test compound", "value": 4, "unit": "%"}]}
{"smiles": "c1ccc(COc2ccccc2-c2nn[nH]c2-c2ccccc2)cc1", "note": "[compound 0200722]", "values": [{"measurement": "remaining activity at 100 µM", "setting": "100 uM test compound", "value": 104, "unit": "%"}]}
{"smiles": "Cn1nc(C(F)(F)F)c(-c2cc(C(F)(F)F)cc(C(F)(F)F)c2)c1-c1ccc(O)cc1O", "note": "[compound 0200723]", "values": [{"measurement": "remaining activity at 50 µM", "value": 88, "unit": "%"}, {"measurement": "remaining activity at 100 µM", "setting": "100 uM test compound", "value": 36, "unit": "%"}]}
{"smiles": "Cn1nc(-c2ccc(O)cc2O)c(-c2cc(C(F)(F)F)cc(C(F)(F)F)c2)c1C(F)(F)F", "note": "[compound 0200724]", "values": [{"measurement": "remaining activity at 100 µM", "setting": "100 uM test compound", "value": 105, "unit": "%"}]}
{"smiles": "Oc1cc(OCc2ccc(Cl)cc2)ccc1-c1n[nH]c(C(F)(F)F)c1-c1ccc(C(F)(F)F)cc1", "note": "[compound 0200725]", "values": [{"measurement": "remaining activity at 100 µM", "setting": "100 uM test compound", "value": 98, "unit": "%"}]}
{"smiles": "Cn1nc(C(F)(F)F)c(-c2ccc(C(F)(F)F)cc2)c1-c1ccc(OCc2ccc(Cl)cc2)cc1O", "note": "[compound 0200726]", "values": [{"measurement": "remaining activity at 100 µM", "setting": "100 uM test compound", "value": 92, "unit": "%"}]}
{"smiles": "Cn1nc(-c2ccc(OCc3ccc(Cl)cc3)cc2O)c(-c2ccc(C(F)(F)F)cc2)c1C(F)(F)F", "note": "[compound 0200727]", "values": [{"measurement": "remaining activity at 100 µM", "setting": "100 uM test compound", "value": 99, "unit": "%"}]}
{"smiles": "Oc1cc(OCc2ccc(Cl)cc2)ccc1-c1n[nH]c(C(F)(F)F)c1-c1ccc(C(F)(F)F)c(Cl)c1", "note": "[compound 0200728]", "values": [{"measurement": "remaining activity at 100 µM", "setting": "100 uM test compound", "value": 89, "unit": "%"}]}
{"smiles": "Cn1nc(-c2ccc(OCc3ccc(Cl)cc3)cc2O)c(-c2ccc(C(F)(F)F)c(Cl)c2)c1C(F)(F)F", "note": "[compound 0200729]", "values": [{"measurement": "remaining activity at 50 µM", "value": 82, "unit": "%"}, {"measurement": "remaining activity at 100 µM", "setting": "100 uM test compound", "value": 43, "unit": "%"}]}
{"smiles": "Oc1cc(OCc2ccc(Cl)cc2)ccc1-c1n[nH]c(C(F)(F)F)c1-c1cccc(C(F)(F)F)c1", "note": "[compound 0200730]", "values": [{"measurement": "remaining activity at 50 µM", "value": 93, "unit": "%"}, {"measurement": "remaining activity at 100 µM", "setting": "100 uM test compound", "value": 77, "unit": "%"}]}
{"smiles": "Cn1nc(-c2ccc(OCc3ccc(Cl)cc3)cc2O)c(-c2cccc(C(F)(F)F)c2)c1C(F)(F)F", "note": "[compound 0200731]", "values": [{"measurement": "remaining activity at 50 µM", "value": 77, "unit": "%"}, {"measurement": "remaining activity at 100 µM", "setting": "100 uM test compound", "value": 62, "unit": "%"}]}
{"smiles": "Oc1cc(OCc2ccc(Cl)cc2)ccc1-c1n[nH]c(C(F)(F)F)c1-c1ccc(Cl)c(C(F)(F)F)c1", "note": "[compound 0200732]", "values": [{"measurement": "remaining activity at 50 µM", "value": 89, "unit": "%"}, {"measurement": "remaining activity at 100 µM", "setting": "100 uM test compound", "value": 46, "unit": "%"}]}
